Values of other authors, collected in patent publication US20130085177A1, “COSMETIC COMPOSITION BASED ON ELLAGIC ACID OR A DERIVATIVE THEREOF AND ON A PARTICULAR MIXTURE OF SURFACTANTS” (priority 2010, published 2013).

O=c1oc2c(O)c(O)cc3c(=O)oc4c(O)c(O)cc1c4c23 [ellagic acid, 2,3,7,8-tetrahydroxy(1)benzo-pyrano(5,4,3-cde)(1)benzopyran-5,10-dione]
solubility in water and in the solvents and oils commonly used in cosmetic compositions: very low
